# From ChEMBL document CHEMBL1141104, “Glycodiversification for the optimization of the kanamycin class aminoglycosides” (2005)
# Active and inactive are the calls of the source. No cut-off for these calls is given here.
# Test system: Staphylococcus aureus
# Assay: Minimum inhibitory concentration against Staphylococcus aureus (ATCC 25923); inactive
# Format: functional, organism-based
# Settings: not given
row,MIC,Structure (SMILES)
1,inactive,CC1CC(O)C(O)C(OC2C(N)CC(N)C(OC3OC(CN)C(O)C(O)C3N)C2O)O1 (centres undefined)
2,inactive,CC1OC(OC2C(N)CC(N)C(OC3OC(CN)C(O)C(O)C3N)C2O)C(O)C(O)C1O (stereo in doubt) [listing 1 of 2 here]
3,inactive,CC1OC(OC2C(N)CC(N)C(OC3OC(CN)C(O)C(O)C3N)C2O)C(O)C(O)C1O (stereo in doubt; 23)

# Test system: Escherichia coli
# Assay: Minimum inhibitory concentration against Escherichia coli (ATCC 25922); inactive
# Format: functional, organism-based
# Settings: not given
row,MIC,Structure (SMILES)
1,inactive,CC1CC(O)C(O)C(OC2C(N)CC(N)C(OC3OC(CN)C(O)C(O)C3N)C2O)O1 (centres undefined)
2,inactive,CC1OC(OC2C(N)CC(N)C(OC3OC(CN)C(O)C(O)C3N)C2O)C(O)C(O)C1O (stereo in doubt) [listing 1 of 2 here]
3,inactive,CC1OC(OC2C(N)CC(N)C(OC3OC(CN)C(O)C(O)C3N)C2O)C(O)C(O)C1O (stereo in doubt; 23)

# Test system: Escherichia coli
# Assay: Minimum inhibitory concentration against Escherichia coli (ATCC 25922)
# Format: functional
# Settings: not given
row,Structure (SMILES),MIC [µg/mL]
1,NC[C@H]1O[C@H](O[C@H]2[C@H](O)[C@@H](O[C@H]3O[C@H](CO)[C@@H](O)[C@H](N)[C@H]3O)[C@H](N)C[C@@H]2N)[C@H](N)[C@@H](O)[C@@H]1O [BEKANAMYCIN],4

# Same assay, conditions: Escherichia coli, ATCC 25922; read-out: MIC
row,Structure (SMILES),MIC [µg/mL]
1,CC1OC(OC2C(N)CC(N)C(OC3OC(CN)C(O)C(O)C3N)C2O)C(O)C(O)C1OCC(CN)OC[C@H](O)CN (some centres undefined),8
2,CC1OC(OC2C(N)CC(N)C(OC3OC(CN)C(O)C(O)C3N)C2O)C(O)C(O)C1O (stereo in doubt) [listing 2 of 2 here],32
3,NC[C@@H]1O[C@H](O[C@H]2[C@H](O)[C@H](O[C@H]3O[C@H](CO)[C@H](O)[C@@H](O)[C@H]3O)[C@H](N)C[C@H]2N)[C@@H](N)[C@@H](O)[C@@H]1O,32
4,CC1OC(OC2C(N)CC(N)C(OC3OC(CN)C(O)C(O)C3N)C2O)C(O)C(O)C1OC[C@H](N)CN (some centres undefined),8
5,CC1OC(OC2C(N)CC(N)C(OC3OC(CN)C(O)C(O)C3N)C2O)C(O)C(O)C1OC[C@@H](N)CN (some centres undefined),8
6,CC1OC(OC2C(N)CC(N)C(OC3OC(CN)C(O)C(O)C3N)C2O)C(O)C(O)C1N (centres undefined),12
7,NC[C@H]1O[C@H](O[C@H]2[C@H](O)[C@@H](O[C@H]3O[C@H](CO)[C@@H](O)[C@H](N)[C@H]3O)[C@H](N)C[C@@H]2N)[C@H](N)[C@@H](O)[C@@H]1O [BEKANAMYCIN],2
8,NCC1OC(OC2C(N)CC(N)C(OC3OCC(O)C(O)C3O)C2O)C(N)C(O)C1O (centres undefined),32

# Further lines, results first:
row,MIC [µg/mL],Structure (SMILES)
1,4,CC1OC(OC2C(N)CC(N)C(OC3OC(CN)C(O)C(O)C3N)C2O)C(O)C(N)C1OCC(O)CN (centres undefined)
2,4,CC1OC(OC2C(N)CC(N)C(OC3OC(CN)C(O)C(O)C3N)C2O)C(O)C(O)C1OC[C@H](O)CN (some centres undefined)
3,4,CC1OC(OC2C(N)CC(N)C(OC3OC(CN)C(O)C(O)C3N)C2O)C(O)C(O)C1OCCCN (centres undefined)
4,4,CC1OC(OC2C(N)CC(N)C(OC3OC(CN)C(O)C(O)C3N)C2O)C(O)C(O)C1OC[C@@H](O)CN (some centres undefined)
5,2,CC1OC(OC2C(N)CC(N)C(OC3OC(CN)C(O)C(O)C3N)C2O)C(O)C(N)C1O (centres undefined)

# Test system: Staphylococcus aureus
# Assay: Minimum inhibitory concentration against Staphylococcus aureus (ATCC 25923)
# Format: functional
# Settings: not given
row,Structure (SMILES),MIC [µg/mL]
1,NC[C@H]1O[C@H](O[C@H]2[C@H](O)[C@@H](O[C@H]3O[C@H](CO)[C@@H](O)[C@H](N)[C@H]3O)[C@H](N)C[C@@H]2N)[C@H](N)[C@@H](O)[C@@H]1O [BEKANAMYCIN],1

# Same assay, conditions: Staphylococcus aureus, ATCC 25923; read-out: MIC
row,Structure (SMILES),MIC [µg/mL]
1,CC1OC(OC2C(N)CC(N)C(OC3OC(CN)C(O)C(O)C3N)C2O)C(O)C(O)C1OCC(CN)OC[C@H](O)CN (some centres undefined),4
2,CC1OC(OC2C(N)CC(N)C(OC3OC(CN)C(O)C(O)C3N)C2O)C(O)C(O)C1O (stereo in doubt) [listing 2 of 2 here],16
3,NC[C@@H]1O[C@H](O[C@H]2[C@H](O)[C@H](O[C@H]3O[C@H](CO)[C@H](O)[C@@H](O)[C@H]3O)[C@H](N)C[C@H]2N)[C@@H](N)[C@@H](O)[C@@H]1O,32
4,CC1OC(OC2C(N)CC(N)C(OC3OC(CN)C(O)C(O)C3N)C2O)C(O)C(O)C1OC[C@H](N)CN (some centres undefined),8
5,CC1OC(OC2C(N)CC(N)C(OC3OC(CN)C(O)C(O)C3N)C2O)C(O)C(O)C1OC[C@@H](N)CN (some centres undefined),8
6,CC1OC(OC2C(N)CC(N)C(OC3OC(CN)C(O)C(O)C3N)C2O)C(O)C(O)C1N (centres undefined),2
7,NC[C@H]1O[C@H](O[C@H]2[C@H](O)[C@@H](O[C@H]3O[C@H](CO)[C@@H](O)[C@H](N)[C@H]3O)[C@H](N)C[C@@H]2N)[C@H](N)[C@@H](O)[C@@H]1O [BEKANAMYCIN],2
8,NCC1OC(OC2C(N)CC(N)C(OC3OCC(O)C(O)C3O)C2O)C(N)C(O)C1O (centres undefined),64

# Further lines, results first:
row,MIC [µg/mL],Structure (SMILES)
1,2,CC1OC(OC2C(N)CC(N)C(OC3OC(CN)C(O)C(O)C3N)C2O)C(O)C(N)C1OCC(O)CN (centres undefined)
2,4,CC1OC(OC2C(N)CC(N)C(OC3OC(CN)C(O)C(O)C3N)C2O)C(O)C(O)C1OC[C@H](O)CN (some centres undefined)
3,4,CC1OC(OC2C(N)CC(N)C(OC3OC(CN)C(O)C(O)C3N)C2O)C(O)C(O)C1OCCCN (centres undefined)
4,4,CC1OC(OC2C(N)CC(N)C(OC3OC(CN)C(O)C(O)C3N)C2O)C(O)C(O)C1OC[C@@H](O)CN (some centres undefined)
5,2,CC1OC(OC2C(N)CC(N)C(OC3OC(CN)C(O)C(O)C3N)C2O)C(O)C(N)C1O (centres undefined)
